We go through six molecules from ChEMBL document CHEMBL1137316, “Discovery of S-(2-guanidylethyl)-isothiourea (VUF 8430) as a potent nonimidazole histamine H4 receptor agonist” (J Med Chem, 2006).

Activity calls are given as the source filed them. The calls are words filed in the database; no cut-off is given here.

Assay [1] has as its target Histamine H2 receptor (Cavia porcellus) (UniProt P47747). Kind of assay: Activity at human histamine H2 receptor in guinea pig right atrium. The assay is classed as functional, tissue-based. Particulars: Cardiac atrium.
For assay [2], the target named is T1, Histamine H3 receptor (Homo sapiens, UniProt Q9Y5N1). The assay is described as follows: Agonist activity at human histamine H3 receptor in SK-N-MC cells assessed as inhibition of forskolin-induced cAMP-mediated CRE-beta galactosidase activity. The class given is functional, cell-based.
Assay [3] has as its target Histamine H1 receptor (Homo sapiens) (UniProt P35367). The assay is described as follows: Agonist activity at human histamine H1 receptor at 100 uM. The assay is classed as functional.
Assay [4] deals with T1, Histamine H3 receptor. The assay is described as follows: Displacement of [3H]Nalpha-methylhistamine from human histamine H3 receptor expressed in SK-N-MC cells. The assay is classed as cell-based.
For assay [5], the target named is Histamine H2 receptor (Homo sapiens) (UniProt P25021). The assay is described as follows: Agonist activity at human histamine H2 receptor. The assay is classed as functional.
The next assay deals with Histamine H4 receptor (Homo sapiens, UniProt Q9H3N8). Kind of assay: Displacement of [3H]histamine from human histamine H4 receptor.
Chain of Histamine H4 receptor (Q9H3N8 whole entry): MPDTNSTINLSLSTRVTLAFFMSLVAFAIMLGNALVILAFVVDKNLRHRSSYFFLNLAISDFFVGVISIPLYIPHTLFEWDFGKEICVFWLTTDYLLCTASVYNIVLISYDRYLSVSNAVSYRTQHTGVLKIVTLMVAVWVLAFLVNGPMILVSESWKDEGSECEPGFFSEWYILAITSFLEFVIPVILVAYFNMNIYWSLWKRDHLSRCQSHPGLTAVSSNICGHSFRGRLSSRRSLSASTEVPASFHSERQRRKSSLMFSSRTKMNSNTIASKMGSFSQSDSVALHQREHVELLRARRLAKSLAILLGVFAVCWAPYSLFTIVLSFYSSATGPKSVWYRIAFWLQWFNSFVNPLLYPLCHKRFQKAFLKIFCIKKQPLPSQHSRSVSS

Chain of Histamine H2 receptor (Cavia porcellus) (P47747 whole entry): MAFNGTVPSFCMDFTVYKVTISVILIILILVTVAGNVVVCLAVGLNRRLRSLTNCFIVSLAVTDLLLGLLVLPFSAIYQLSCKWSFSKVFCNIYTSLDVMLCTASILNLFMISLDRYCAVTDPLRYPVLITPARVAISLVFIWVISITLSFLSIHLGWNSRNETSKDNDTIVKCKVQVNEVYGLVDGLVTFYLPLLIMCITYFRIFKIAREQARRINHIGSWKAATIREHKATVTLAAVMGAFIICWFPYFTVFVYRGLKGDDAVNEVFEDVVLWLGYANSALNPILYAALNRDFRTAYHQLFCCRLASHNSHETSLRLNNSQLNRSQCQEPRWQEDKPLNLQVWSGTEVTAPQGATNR
T1 sequence (Q9Y5N1 whole entry): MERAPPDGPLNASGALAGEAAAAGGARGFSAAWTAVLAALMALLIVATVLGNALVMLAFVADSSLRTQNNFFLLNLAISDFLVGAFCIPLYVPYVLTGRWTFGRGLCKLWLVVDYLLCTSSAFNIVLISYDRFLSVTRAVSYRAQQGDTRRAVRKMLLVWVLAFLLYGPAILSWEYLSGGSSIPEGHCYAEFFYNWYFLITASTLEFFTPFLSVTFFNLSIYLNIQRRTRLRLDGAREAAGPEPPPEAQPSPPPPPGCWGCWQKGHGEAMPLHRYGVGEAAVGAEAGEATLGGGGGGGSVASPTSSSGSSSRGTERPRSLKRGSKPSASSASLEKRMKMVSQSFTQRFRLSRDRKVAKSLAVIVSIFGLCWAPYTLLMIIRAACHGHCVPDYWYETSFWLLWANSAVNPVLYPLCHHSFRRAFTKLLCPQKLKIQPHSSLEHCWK
Chain of Histamine H1 receptor (Homo sapiens) (P35367 whole entry): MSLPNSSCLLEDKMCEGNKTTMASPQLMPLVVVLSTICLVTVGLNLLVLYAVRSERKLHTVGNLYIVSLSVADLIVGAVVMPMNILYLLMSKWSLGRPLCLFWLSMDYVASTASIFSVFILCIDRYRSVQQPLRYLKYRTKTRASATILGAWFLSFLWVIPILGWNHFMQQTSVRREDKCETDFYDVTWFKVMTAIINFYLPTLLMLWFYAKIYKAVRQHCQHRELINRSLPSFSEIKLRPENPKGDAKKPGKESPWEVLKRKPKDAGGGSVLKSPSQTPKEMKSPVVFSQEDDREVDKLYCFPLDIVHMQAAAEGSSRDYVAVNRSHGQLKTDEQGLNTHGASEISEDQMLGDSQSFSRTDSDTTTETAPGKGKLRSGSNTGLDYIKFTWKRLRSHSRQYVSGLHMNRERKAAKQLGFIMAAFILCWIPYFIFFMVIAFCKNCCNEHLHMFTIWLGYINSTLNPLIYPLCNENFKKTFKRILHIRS
Chain of Histamine H2 receptor (Homo sapiens) (P25021 whole entry): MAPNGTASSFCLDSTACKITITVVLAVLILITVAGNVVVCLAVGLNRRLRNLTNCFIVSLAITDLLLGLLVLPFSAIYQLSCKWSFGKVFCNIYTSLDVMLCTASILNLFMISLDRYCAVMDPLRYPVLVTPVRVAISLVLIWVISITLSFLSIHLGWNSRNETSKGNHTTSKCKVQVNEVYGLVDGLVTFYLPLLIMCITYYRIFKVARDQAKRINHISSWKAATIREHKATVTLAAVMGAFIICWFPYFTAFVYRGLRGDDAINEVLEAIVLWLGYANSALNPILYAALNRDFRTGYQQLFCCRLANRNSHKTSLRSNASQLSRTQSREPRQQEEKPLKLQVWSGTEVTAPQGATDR

In assay [1], `N=C(N)NCCSC(=N)N` yielded an Intrinsic activity of 0.4 and a pD2 of 3.8. Further, on Histamine H3 receptor [2], the Intrinsic activity worked out at 1. Further, the outcome in assay [3] was inactive. The inhibition constant (Ki) on Histamine H3 receptor [4] is 1000 nM. The molecule further registered an Activity in assay [5] of 50%.
In the case of `N=C(N)NCCNC(=N)N`, the inhibition constant Ki at Histamine H4 receptor was 398 nM.
Turning to `N=C(N)NCCCSC(=N)N`, the Ki on Histamine H4 receptor is 7940 nM.
Take `N=C(N)NCCCCSC(=N)N`: the inhibition constant Ki on Histamine H4 receptor is 3160 nM.
On Histamine H4 receptor, `N=C(N)SCCSC(=N)N` had a Ki of 251 nM.
Regarding `N=C(N)NCCCCCCSC(=N)N`, the affinity on Histamine H4 receptor, expressed as Ki, was 3980 nM.
